Measurements published in patent publication US20260035355A1, “COMPOUND, PHARMACEUTICAL COMPOSITION COMPRISING SAME, AND USE THEREOF” (SHENZHEN ZHONGGE BIOLOGICAL TECHNOLOGY CO., LTD., priority 2022, published 2026).

How the values were obtained:
[1] = Evaluation of cell membrane permeability; format: in vitro ADME; settings: 10 μM, 120 minutes; for efflux ratio at 120 min, 10 μM: read-out: Efflux Ratio (Papp B to A/Papp A to B); for Papp A→B at 120 min, 10 μM / Papp B→A at 120 min, 10 μM: transport buffer (HBSS+BSA), 37° C.
Protocol: (§1) The test compounds were diluted from 10 mM stock solutions to a concentration of 10 μM using the transport buffer (HBSS+BSA) and applied to the apical or basolateral side of the cell monolayer. After the incubation at 37° C., 5% CO2 and 95% relative humidity for 120 minutes, the permeability of the test compounds in the A to B direction or the B to A direction was dually determined. In addition, the efflux ratio (Papp B to A/Papp A to B) of each compound was determined. The test substances and reference substances were quantitatively analyzed by the LC-MS/MS method based on the analyte/IS peak area ratio.

eIF2B = biological target: T1, eIF2B (Homo sapiens, UniProt P49770+Q9UI10); assay: ATF4-Luc assay (ATF4 luciferase reporter, thapsigargin-induced stress); format: cell-based; settings: HEK293T/17-ATF4 uORF-Luc-Puro monoclonal cells, 50 nM thapsigargin, incubated for 6 hours
T1 construct: endogenous in cells; host or cells: HEK293T/17-ATF4 uORF-Luc-Puro monoclonal cells
Text: The ATF4 luciferase reporter plasmid consists of two parts, i.e., the 5′ untranslated region sequence of the ATF4 gene and the luciferase coding sequence. Specifically, the ATF4 5′ untranslated region sequence (NCBI database number BC022088.2) containing two upstream open reading frames (uORFs), and the firefly luciferase encoding gene were cloned into the pLVX-Puro vector (YouBio, VT1465). The packaging plasmids of lentivirus were psPAX2 (YouBio, VT1444) and pMD2.G (YouBio, VT1443). 650,000 HEK293T cells were seeded per well of a 6-well plate and cultured overnight in a 5% CO2 incubator. The cells were transfected with the packaged lentivirus for 48 hours and then centrifuged, and the supernatant was discarded. The medium was replaced and changed to the DMEM complete medium containing 0.8 μg/ml puromycin, and the cells were resuspended and then cultured. After one week of cell screening with puromycin, the surviving cells were HEK293T-ATF4 uORF-Luc-Puro polyclonal cells. 200 polyclonal cells were taken and subjected to limiting gradient dilution by using a 96-well plate, so as to obtain monoclonal cells.
The specific method for screening the monoclonal cells involves: placing the 200 polyclonal cells in well A1 of the 96-well plate; step one: performing gradient dilution from columns A1 to H1 at a ratio of 1:2; step two: performing gradient dilution from rows A to H, with each row from wells 1 to 12 at a ratio of 1:2; marking the wells with a theoretical cell number less than 0.5 and observing one by one under a microscope; marking the wells with only one cell; and culturing the cells for two weeks to obtain the monoclonal cells.
By using this cell line and the cold fluorescence readings, the translational regulation of ATF4 can be detected, and the activity of eIF2B activated by the compounds can be tested.
The specific experimental process is as follows: 6000 HEK293T/17-ATF4 uORF-Luc-Puro monoclonal cells were plated in a 384-well plate and allowed to adhere overnight. The test compounds were dissolved in DMSO and diluted to 10 different concentrations, which were respectively added together with 50 nM thapsigargin to the cell culture medium and incubated for 6 hours, wherein the thapsigargin was used to cause cellular stress and upregulate the protein translation of ATF4. Six hours after the addition, the cells were lysed using the One-Glo Luciferase Assay Kit (Promega #E6120), and then the cold fluorescence values were read using the LUM program of the EnVision 2104 plate reader.
EC50 was calculated based on the fluorescence values at 9 concentrations (0.1 nM, 0.3 nM, 1.0 nM, 3.0 nM, 10.0 nM, 30.0 nM, 100.0 nM, 300.0 nM and 1000.0 nM) of each compound and recorded in Table 1.
The ATF4 reporter expression was calculated as follows:
ATF4 reporter expression=(ave_sample-ave_vc)/(ave_pc-ave_vc)
where ave_vc represents the average signal value of negative controls, ave_pc represents the average signal value of positive controls, and ave_sample represents the average signal value of samples.
The dose-response curves were fitted, and the EC50 values were calculated.
The nonlinear regression log(inhibitor) vs. response—variable slope (four parameters) method of GraphPad 9 software was used to fit the corresponding relationship between the ATF4 reporter expression and the compound concentration.
The X-axis represents the log value of the compound concentration; and the Y-axis represents the ATF4 reporter expression.

cell monolayer = assay: Evaluation of cell membrane permeability; format: in vitro ADME
Protocol: as §1

[2] = Pharmacokinetic evaluation in mice; format: in vivo
Protocol: The test compounds were dissolved in vehicles to prepare clear solutions or homogeneous suspensions. Three mice were placed in each group and received an intravenous (IV) administration via the tail vein at 1 mg/kg and an oral (PO) administration at 30 mg/kg. Blood samples were collected at 0.083 h, 0.25 h, 0.5 h, 1 h, 2 h, 4 h, 8 h, and 24 h after the intravenous administration, and at 0.25 h, 0.5 h, 1 h, 2 h, 4 h, 6 h, 8 h, and 24 h after the oral administration. Plasma samples were centrifuged, and the supernatant was collected to prepare samples, which were then quantitatively analyzed by LC/MS/MS.

T1 sequence (P49770 whole entry): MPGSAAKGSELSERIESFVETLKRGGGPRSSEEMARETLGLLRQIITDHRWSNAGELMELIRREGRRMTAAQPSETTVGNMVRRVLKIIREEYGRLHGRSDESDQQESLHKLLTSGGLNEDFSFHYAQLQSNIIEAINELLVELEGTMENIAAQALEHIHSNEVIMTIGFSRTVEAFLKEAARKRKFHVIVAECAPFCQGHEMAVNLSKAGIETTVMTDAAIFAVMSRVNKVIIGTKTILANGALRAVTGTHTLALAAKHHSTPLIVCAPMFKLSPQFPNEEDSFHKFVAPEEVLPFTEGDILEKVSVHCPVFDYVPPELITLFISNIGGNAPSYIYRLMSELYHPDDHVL
T1 sequence (Q9UI10 whole entry): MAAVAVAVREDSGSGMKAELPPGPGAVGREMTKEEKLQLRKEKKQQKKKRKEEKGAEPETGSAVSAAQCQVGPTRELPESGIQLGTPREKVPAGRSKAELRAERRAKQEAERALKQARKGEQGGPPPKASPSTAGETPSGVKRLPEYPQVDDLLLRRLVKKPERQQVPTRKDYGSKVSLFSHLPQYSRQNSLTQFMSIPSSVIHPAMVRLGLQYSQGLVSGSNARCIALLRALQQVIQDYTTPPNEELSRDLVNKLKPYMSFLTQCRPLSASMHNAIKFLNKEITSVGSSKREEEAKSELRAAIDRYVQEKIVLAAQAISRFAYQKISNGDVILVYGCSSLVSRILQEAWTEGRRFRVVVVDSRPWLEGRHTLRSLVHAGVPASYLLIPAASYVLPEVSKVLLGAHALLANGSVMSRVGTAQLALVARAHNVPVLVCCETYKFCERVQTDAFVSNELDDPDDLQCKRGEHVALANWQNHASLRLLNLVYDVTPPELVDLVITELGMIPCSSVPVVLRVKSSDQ
T1 sequence (Q14232 whole entry partner): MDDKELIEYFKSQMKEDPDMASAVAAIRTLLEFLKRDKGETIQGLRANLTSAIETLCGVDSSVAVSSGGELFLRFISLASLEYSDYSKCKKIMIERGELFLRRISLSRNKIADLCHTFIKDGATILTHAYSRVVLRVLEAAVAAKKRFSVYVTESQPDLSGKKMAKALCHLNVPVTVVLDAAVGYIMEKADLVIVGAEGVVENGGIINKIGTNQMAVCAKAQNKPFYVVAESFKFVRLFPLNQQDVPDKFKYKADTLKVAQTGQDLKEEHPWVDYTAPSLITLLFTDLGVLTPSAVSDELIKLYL
T1 sequence (Q9NR50 whole entry partner): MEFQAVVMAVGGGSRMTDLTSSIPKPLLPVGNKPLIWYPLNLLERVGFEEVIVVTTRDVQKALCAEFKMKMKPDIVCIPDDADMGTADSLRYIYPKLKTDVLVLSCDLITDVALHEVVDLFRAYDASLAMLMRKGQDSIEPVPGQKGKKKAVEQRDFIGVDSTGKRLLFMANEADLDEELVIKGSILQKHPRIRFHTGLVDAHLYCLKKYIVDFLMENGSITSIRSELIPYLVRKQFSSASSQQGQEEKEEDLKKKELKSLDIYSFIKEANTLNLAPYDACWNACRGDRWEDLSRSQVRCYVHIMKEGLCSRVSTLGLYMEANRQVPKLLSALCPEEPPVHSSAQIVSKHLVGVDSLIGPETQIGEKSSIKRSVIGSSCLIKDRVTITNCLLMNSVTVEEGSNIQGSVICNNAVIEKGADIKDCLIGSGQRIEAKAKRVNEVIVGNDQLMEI
T1 sequence (Q13144 whole entry partner): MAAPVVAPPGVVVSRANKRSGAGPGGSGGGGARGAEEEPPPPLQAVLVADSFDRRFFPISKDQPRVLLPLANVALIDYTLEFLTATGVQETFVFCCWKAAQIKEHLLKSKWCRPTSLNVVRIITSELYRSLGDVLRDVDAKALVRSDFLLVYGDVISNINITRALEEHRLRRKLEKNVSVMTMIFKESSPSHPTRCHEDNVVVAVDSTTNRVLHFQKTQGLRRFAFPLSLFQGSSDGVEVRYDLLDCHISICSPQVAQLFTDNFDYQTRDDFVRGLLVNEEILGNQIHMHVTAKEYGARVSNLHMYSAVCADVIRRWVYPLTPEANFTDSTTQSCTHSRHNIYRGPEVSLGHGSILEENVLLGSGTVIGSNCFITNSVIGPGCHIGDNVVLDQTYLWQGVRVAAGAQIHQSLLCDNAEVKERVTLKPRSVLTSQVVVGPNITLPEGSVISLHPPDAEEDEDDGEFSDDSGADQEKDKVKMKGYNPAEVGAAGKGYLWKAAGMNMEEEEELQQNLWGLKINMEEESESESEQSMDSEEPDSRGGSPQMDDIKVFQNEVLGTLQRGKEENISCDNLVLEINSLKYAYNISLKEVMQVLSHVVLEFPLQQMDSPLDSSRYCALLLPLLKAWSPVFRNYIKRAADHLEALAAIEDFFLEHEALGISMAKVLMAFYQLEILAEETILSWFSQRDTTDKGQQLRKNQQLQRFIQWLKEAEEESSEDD

| SMILES | EC50 (eIF2B) [nM] | also measured |
| --- | --- | --- |
| C[C@H]1O[C@@H](O[C@H]2[C@@H](O)C[C@H](O[C@H]3[C@@H](O)C[C@H](O[C@H]4CC[C@@]5(C)[C@H](CC[C@@H]6[C@@H]5C[C@@H](O)[C@]5(C)[C@@H](C7=CC(=O)OC7)CC[C@]65O)C4)O[C@@H]3C)O[C@@H]2C)C[C@H](O)[C@@H]1O [Digoxin] |  | efflux ratio at 120 min, 10 μM [1]: 44.7; Papp A→B at 120 min, 10 μM [1]: 0.25 ×10⁻⁶ cm/s; Papp B→A at 120 min, 10 μM [1]: 11.2 ×10⁻⁶ cm/s |
| O=C(COc1ccc(Cl)c(F)c1)NC1CC12CCN(C(=O)c1cnc(C(F)F)cn1)CC2 (stereo not drawn) [I-1] | > 100 |  |
| O=C(COc1ccc(Cl)c(F)c1)NC1CC12CCN(C(=O)c1cc3cc(Cl)ccc3o1)CC2 (stereo not drawn) [I-2] | > 100 |  |
| O=C(COc1ccc(Cl)c(F)c1)NC1CC12CCN(C(=O)[C@H]1CNc3cc(Cl)ccc3O1)CC2 (stereo partly drawn) [I-3] | > 100 |  |
| CN1C[C@H](C(=O)N2CCC3(CC2)CC3NC(=O)COc2ccc(Cl)c(F)c2)Oc2ccc(Cl)cc21 (stereo partly drawn) [I-4] | > 100 |  |
| O=C(COc1ccc(Cl)c(F)c1)NC1CC12CCN(NC(=O)COc1ccc(Cl)c(F)c1)CC2 (stereo not drawn) [I-5] | > 100 |  |
| O=C(COc1ccc(Cl)c(F)c1)NC1CC12CCN(NC(=O)c1cc3cc(Cl)ccc3o1)CC2 (stereo not drawn) [I-6] | > 100 |  |
| O=C(COc1ccc(Cl)c(F)c1)NC1CC12CCN(NC(=O)[C@H]1CNc3cc(Cl)ccc3O1)CC2 (stereo partly drawn) [I-7] | > 100 |  |
| CN1C[C@H](C(=O)NN2CCC3(CC2)CC3NC(=O)COc2ccc(Cl)c(F)c2)Oc2ccc(Cl)cc21 (stereo partly drawn) [I-8] | > 100 |  |
| O=C(NC1CC12CCN(C(=O)c1cc3cc(Cl)ccc3o1)CC2)c1cc2cc(Cl)ccc2o1 (stereo not drawn) [I-9] | > 100 |  |
| O=C(NC1CC12CCN(NC(=O)c1cc3cc(Cl)ccc3o1)CC2)c1cc2cc(Cl)ccc2o1 (stereo not drawn) [I-10] | 10 to 100 |  |
| CC(C)NCC(O)COc1cccc2ccccc12 (stereo not drawn) [Propranolol] |  | Papp A→B at 120 min, 10 μM [1]: 32.4 ×10⁻⁶ cm/s; Papp B→A at 120 min, 10 μM [1]: 20.1 ×10⁻⁶ cm/s |
| O=C(COc1ccc(Cl)c(F)c1)NC1CCC2(CC1)CN(C(=O)COc1ccc(Cl)c(F)c1)C2 [V-10] | 10 to 100 |  |
| O=C(COc1ccc(Cl)c(F)c1)NC1CCC2(CC1)CN(C(=O)c1cnc(C(F)F)cn1)C2 [V-11] | > 100 |  |
| O=C(COc1ccc(Cl)c(F)c1)NC1CCC2(CC1)CN(C(=O)C1CNc3cc(Cl)ccc3O1)C2 (stereo not drawn) [V-12] | > 100 |  |

More lines, main results first:

| EC50 (eIF2B) [nM] | SMILES | also measured |
| --- | --- | --- |
| > 100 | O=C(COc1ccc(Cl)c(F)c1)NC1COC2(C1)CN(C(=O)c1cnc(C(F)F)cn1)C2 (stereo not drawn) [II-10] |  |
| > 100 | O=C(COc1ccc(Cl)c(F)c1)NC1COC2(C1)CN(C(=O)COc1ccc(Cl)c(F)c1)C2 (stereo not drawn) [II-11] |  |
| 10 to 100 | O=C(COc1ccc(Cl)c(F)c1)NC1COC2(C1)CN(C(=O)c1cc3cc(Cl)ccc3o1)C2 (stereo not drawn) [II-12] |  |
| > 100 | O=C(COc1ccc(Cl)c(F)c1)NC1COC2(C1)CN(C(=O)[C@H]1CNc3cc(Cl)ccc3O1)C2 (stereo partly drawn) [II-13] |  |
| > 100 | CN1C[C@H](C(=O)N2CC3(CC(NC(=O)COc4ccc(Cl)c(F)c4)CO3)C2)Oc2ccc(Cl)cc21 (stereo partly drawn) [II-14] |  |
| < 10 | O=C(COc1ccc(Cl)c(F)c1)NC1CC2(C1)CC(c1nnc(N3CC(OC(F)(F)F)C3)o1)C2 (stereo not drawn) [III-1] | P-glycoprotein substrate (in words) (cell monolayer): not P-glycoprotein substrates; cell membrane permeability (in words) (cell monolayer): good cell membrane permeability; efflux ratio at 120 min, 10 μM [1]: 1.05; Papp A→B at 120 min, 10 μM [1]: 17.7 ×10⁻⁶ cm/s; Papp B→A at 120 min, 10 μM [1]: 18.6 ×10⁻⁶ cm/s; pharmacokinetic properties in mice (in words) ([2]; mouse, in vivo): excellent pharmacokinetic properties in mice; AUC(0-inf) ([2]; plasma, mouse IV 1 mg/kg): 2230 ng·h/mL; C0 ([2]; plasma, mouse IV 1 mg/kg): 1340 ng/mL; clearance ([2]; plasma, mouse IV 1 mg/kg): 7.5 mL/min/kg; half-life ([2]; plasma, mouse IV 1 mg/kg): 2.07 h; Vd ([2]; plasma, mouse IV 1 mg/kg, read-out: Vss): 1.18 L/kg; AUC(0-inf) ([2]; plasma, mouse PO 30 mg/kg): 111000 ng·h/mL; Cmax ([2]; plasma, mouse PO 30 mg/kg): 21500 ng/mL; Tmax ([2]; plasma, mouse PO 30 mg/kg): 1.33 h; bioavailability ([2]; plasma, mouse PO 30 mg/kg): 177%; half-life ([2]; plasma, mouse PO 30 mg/kg): 1.93 h |
| > 100 | O=C(COc1ccc(Cl)c(F)c1)NC1CC2(C1)CC(NC(=O)COc1ccc(Cl)c(F)c1)C2 (stereo not drawn) [III-10] |  |
| > 100 | O=C(COc1ccc(Cl)c(F)c1)NC1CC2(C1)CC(NC(=O)c1cnc(C(F)F)cn1)C2 (stereo not drawn) [III-11] |  |
| > 100 | CN1CC(C(=O)NC2CC3(CC(NC(=O)COc4ccc(Cl)c(F)c4)C3)C2)Oc2ccc(Cl)cc21 (stereo not drawn) [III-12] |  |
| 10 to 100 | O=C(COc1ccc(Cl)c(F)c1)NC1CC2(C1)CC(NC(=O)C1CNc3cc(Cl)ccc3O1)C2 (stereo not drawn) [III-13] |  |
| 10 to 100 | O=C(COc1ccc(Cl)c(F)c1)NC1CC2(CCN(c3nnc(N4CC(OC(F)(F)F)C4)o3)CC2)C1 [IV-1] |  |
| 10 to 100 | O=C(COc1ccc(Cl)c(F)c1)NC1CC2(CCN(C(=O)COc3ccc(Cl)c(F)c3)CC2)C1 [IV-11] |  |
| > 100 | O=C(COc1ccc(Cl)c(F)c1)NC1CC2(CCN(C(=O)c3cnc(C(F)F)cn3)CC2)C1 [IV-12] |  |
| < 10 | O=C(COc1ccc(Cl)c(F)c1)NC1CC2(CCN(C(=O)[C@H]3CNc4cc(Cl)ccc4O3)CC2)C1 [IV-13] |  |
| 10 to 100 | O=C(COc1ccc(Cl)c(F)c1)NC1CC2(CCN(c3nnc(-c4ccc(Cl)cc4)o3)CC2)C1 [IV-14] |  |
| > 100 | CN1C[C@H](C(=O)N2CCC3(CC2)CC(NC(=O)COc2ccc(Cl)c(F)c2)C3)Oc2ccc(Cl)cc21 [IV-15] |  |
| > 100 | O=C(CO[C@H]1C[C@@H](OC(F)(F)F)C1)NC1CC2(CCN(C(=O)c3cc4cc(Cl)ccc4o3)CC2)C1 [IV-16] |  |
| > 100 | O=C(CO[C@H]1C[C@@H](OC(F)(F)F)C1)NC1CC2(CCN(C(=O)COc3ccc(Cl)c(F)c3)CC2)C1 [IV-17] |  |
| 10 to 100 | O=C(NC1CC2(CCN(C(=O)[C@@H]3CNc4cc(Cl)ccc4O3)CC2)C1)[C@H]1CNc2cc(Cl)ccc2O1 [IV-18] |  |
| 10 to 100 | O=C(COc1ccc(Cl)c(F)c1)NC1CC2(CCN(C(=O)c3cc4cc(Cl)ccc4o3)CC2)C1 [IV-19] |  |
| < 10 | O=C(NC1CC2(CCN(C(=O)c3cc4cc(Cl)ccc4o3)CC2)C1)c1cc2cc(Cl)ccc2o1 [IV-20] |  |
| 10 to 100 | O=C(COc1ccc(Cl)c(F)c1)NC1CC2(CCC(c3nnc(N4CC(OC(F)(F)F)C4)o3)CC2)C1 (stereo not drawn) [VI-1] |  |
| < 10 | O=C(COc1ccc(Cl)c(F)c1)NC1CCC(c2nnc(N3CC(OC(F)(F)F)C3)o2)C2(CC2)C1 (stereo not drawn) [VIII-1] |  |
